How the values were obtained:
B. subtilis 168 [1] = experiment: fitness (endpoint OD595 vs no drug) (fraction); higher = more growth
In short: (§1)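 In 384-well plates at 37 °C, cultures began at OD595 0.01 in 30 µl, with 55 µl used for S. pneumoniae. OD595 readings every 30 min for 14 h were corrected by the first reading. Fitness divides the stationary-phase transition optical density by the robust mean of no-drug control wells. The result is capped at 1.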

S. aureus DSM 20231 [2] = experiment: as above
In short: as §1

S. pneumoniae D39V [3] = experiment: as above
In short: as §1

B. subtilis 168 [4] = experiment: Bliss interaction score (quartile over a dose matrix) (fitness difference); higher = more antagonism (negative = synergy)
In short: (§2)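 Combination data were used to infer fitness under each single drug. Fitness is the OD595 at entry into stationary phase divided by the robust mean of the plate's no-drug wells, with a cap of 1. The Bliss score is the observed minus the expected product fitness, summarised by quartiles over technical, biological and donor/recipient replicates.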

S. aureus DSM 20231 [5] = experiment: as above
In short: as §2

S. aureus Newman = experiment: as above
In short: as §2

S. pneumoniae D39V [6] = experiment: as above
In short: as §2
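Wherever Bliss interaction score (quartile over a dose matrix) is given: first quartile when negative (synergy) and third quartile when positive (antagonism).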

CC(=O)NC[C@H]1CN(c2ccc(N3CCOCC3)c(F)c2)C(=O)O1 [Linezolid] + Cc1cc(NS(=O)(=O)c2ccc(N)cc2)no1 [Sulfamethoxazol]
fitness, one replicate
Conditions	partner 0.5 µg/mL	partner 1 µg/mL	partner 2 µg/mL	partner 4 µg/mL
B. subtilis 168 [1], first compound 0.0625 µg/mL	–	0.94	0.895	0.828
B. subtilis 168 [1], first compound 0.125 µg/mL	0.858	–	–	–
B. subtilis 168 [1], first compound 0.25 µg/mL	0.446	–	–	–
B. subtilis 168 [1], first compound 0.5 µg/mL	0.0399	–	–	–
S. aureus DSM 20231 [2], first compound 1 µg/mL	–	0.0364	0.0289	0.0207
S. pneumoniae D39V [3], first compound 0.2 µg/mL	–	0.777	0.817	0.726
S. pneumoniae D39V [3], first compound 0.4 µg/mL	–	0.368	0.674	0.661
S. pneumoniae D39V [3], first compound 0.8 µg/mL	–	0.348	0.427	0.397

fitness
Conditions	first compound 0.105 µg/mL	first compound 0.125 µg/mL	first compound 0.21 µg/mL	first compound 0.25 µg/mL	first compound 0.42 µg/mL	first compound 0.5 µg/mL
B. subtilis 168 [1], partner 1 µg/mL	–	0.606	–	0.2	–	0.0228
B. subtilis 168 [1], partner 2 µg/mL	–	0.525	–	0.13	–	0.0265
B. subtilis 168 [1], partner 4 µg/mL	–	0.515	–	0.0743	–	0.0275
S. aureus DSM 20231 [2], partner 1 µg/mL	–	0.844	–	0.55	–	0.167
S. aureus DSM 20231 [2], partner 2 µg/mL	–	0.865	–	0.533	–	0.161
S. aureus DSM 20231 [2], partner 4 µg/mL	–	0.852	–	0.557	–	0.186
S. pneumoniae D39V [3], partner 1 µg/mL	0.774	–	0.688	–	0.463	–
S. pneumoniae D39V [3], partner 2 µg/mL	0.772	–	0.71	–	0.48	–
S. pneumoniae D39V [3], partner 4 µg/mL	0.821	–	0.729	–	0.48	–

Conditions	Bliss interaction score
B. subtilis 168 [4]	-0.0478
S. aureus DSM 20231 [5]	-0.03
S. aureus Newman	0.0723
S. pneumoniae D39V [6]	-0.0972

CC(=O)NC[C@H]1CN(c2ccc(N3CCOCC3)c(F)c2)C(=O)O1 [Linezolid] + CCN(CC)CCOC(=O)c1ccc(N)cc1 [Procaine]
fitness, one replicate
Conditions	partner 85.5 µg/mL	partner 171 µg/mL	partner 342 µg/mL
B. subtilis 168 [1], first compound 0.0625 µg/mL	0.828	0.846	0.858
S. aureus DSM 20231 [2], first compound 1 µg/mL	0.0561	0.0334	0.05
S. pneumoniae D39V [3], first compound 0.2 µg/mL	0.792	0.839	0.778
S. pneumoniae D39V [3], first compound 0.4 µg/mL	0.609	0.669	0.621
S. pneumoniae D39V [3], first compound 0.8 µg/mL	0.245	0.335	0.271

fitness
Conditions	first compound 0.105 µg/mL	first compound 0.125 µg/mL	first compound 0.21 µg/mL	first compound 0.25 µg/mL	first compound 0.42 µg/mL	first compound 0.5 µg/mL
B. subtilis 168 [1], partner 85.5 µg/mL	–	0.587	–	0.101	–	0.022
B. subtilis 168 [1], partner 171 µg/mL	–	0.613	–	0.0992	–	0.0423
B. subtilis 168 [1], partner 342 µg/mL	–	0.569	–	0.0813	–	0.0154
S. aureus DSM 20231 [2], partner 85.5 µg/mL	–	0.839	–	0.574	–	0.15
S. aureus DSM 20231 [2], partner 171 µg/mL	–	0.832	–	0.643	–	0.193
S. aureus DSM 20231 [2], partner 342 µg/mL	–	0.768	–	0.582	–	0.143
S. pneumoniae D39V [3], partner 85.5 µg/mL	0.824	–	0.728	–	0.579	–
S. pneumoniae D39V [3], partner 171 µg/mL	0.816	–	0.719	–	0.569	–
S. pneumoniae D39V [3], partner 342 µg/mL	0.801	–	0.699	–	0.535	–

Conditions	Bliss interaction score
B. subtilis 168 [4]	0.0668
S. aureus DSM 20231 [5]	-0.0676
S. aureus Newman	0.111
S. pneumoniae D39V [6]	0.0684

CC(=O)NC[C@H]1CN(c2ccc(N3CCOCC3)c(F)c2)C(=O)O1 [Linezolid] + CN1C2=CC=CC=C2N=C3C1=CC=CC3=O [Pyocyanin]
one replicate
Conditions	fitness
B. subtilis 168 [1], first compound 0.0625 µg/mL, partner 1.25 µg/mL	0.804
B. subtilis 168 [1], first compound 0.0625 µg/mL, partner 2.5 µg/mL	0.749
B. subtilis 168 [1], first compound 0.0625 µg/mL, partner 5 µg/mL	0.594
S. aureus DSM 20231 [2], first compound 1 µg/mL, partner 1.25 µg/mL	0.0458
S. aureus DSM 20231 [2], first compound 1 µg/mL, partner 2.5 µg/mL	0.0282
S. aureus DSM 20231 [2], first compound 1 µg/mL, partner 5 µg/mL	0.0258
S. pneumoniae D39V [3], first compound 0.2 µg/mL, partner 0.325 µg/mL	0.892
S. pneumoniae D39V [3], first compound 0.2 µg/mL, partner 0.65 µg/mL	0.824
S. pneumoniae D39V [3], first compound 0.4 µg/mL, partner 0.325 µg/mL	0.745
S. pneumoniae D39V [3], first compound 0.4 µg/mL, partner 0.65 µg/mL	0.745
S. pneumoniae D39V [3], first compound 0.8 µg/mL, partner 0.325 µg/mL	0.483
S. pneumoniae D39V [3], first compound 0.8 µg/mL, partner 0.65 µg/mL	0.603

Conditions	fitness
B. subtilis 168 [1], first compound 0.125 µg/mL, partner 1.25 µg/mL	0.563
B. subtilis 168 [1], first compound 0.125 µg/mL, partner 2.5 µg/mL	0.544
B. subtilis 168 [1], first compound 0.125 µg/mL, partner 5 µg/mL	0.466
B. subtilis 168 [1], first compound 0.25 µg/mL, partner 2.5 µg/mL	0.093
B. subtilis 168 [1], first compound 0.25 µg/mL, partner 5 µg/mL	0.131
B. subtilis 168 [1], first compound 0.5 µg/mL, partner 1.25 µg/mL	0.027
B. subtilis 168 [1], first compound 0.5 µg/mL, partner 2.5 µg/mL	0.0397
B. subtilis 168 [1], first compound 0.5 µg/mL, partner 5 µg/mL	0.0383
S. aureus DSM 20231 [2], first compound 0.125 µg/mL, partner 1.25 µg/mL	0.768
S. aureus DSM 20231 [2], first compound 0.125 µg/mL, partner 2.5 µg/mL	0.829
S. aureus DSM 20231 [2], first compound 0.125 µg/mL, partner 5 µg/mL	0.546
S. aureus DSM 20231 [2], first compound 0.25 µg/mL, partner 1.25 µg/mL	0.559
S. aureus DSM 20231 [2], first compound 0.5 µg/mL, partner 1.25 µg/mL	0.208
S. aureus DSM 20231 [2], first compound 0.5 µg/mL, partner 2.5 µg/mL	0.143
S. aureus DSM 20231 [2], first compound 0.5 µg/mL, partner 5 µg/mL	0.0745
S. pneumoniae D39V [3], first compound 0.105 µg/mL, partner 0.325 µg/mL	0.858
S. pneumoniae D39V [3], first compound 0.105 µg/mL, partner 0.65 µg/mL	0.882
S. pneumoniae D39V [3], first compound 0.105 µg/mL, partner 1.3 µg/mL	0.632
S. pneumoniae D39V [3], first compound 0.21 µg/mL, partner 0.325 µg/mL	0.773
S. pneumoniae D39V [3], first compound 0.21 µg/mL, partner 0.65 µg/mL	0.775
S. pneumoniae D39V [3], first compound 0.21 µg/mL, partner 1.3 µg/mL	0.608
S. pneumoniae D39V [3], first compound 0.42 µg/mL, partner 0.325 µg/mL	0.605
S. pneumoniae D39V [3], first compound 0.42 µg/mL, partner 0.65 µg/mL	0.589
S. pneumoniae D39V [3], first compound 0.42 µg/mL, partner 1.3 µg/mL	0.389

Conditions	Bliss interaction score
B. subtilis 168 [4]	0.109
S. aureus DSM 20231 [5]	0.047
S. aureus Newman	-0.0368
S. pneumoniae D39V [6]	0.118

Reference: the supplement of paper PMC10627819
